From article PMC6973051, “Proline‐Rich Peptides with Improved Antimicrobial Activity against E. coli, K. pneumoniae, and A. baumannii” (Chemmedchem, 2019)
Like-named read-outs stand apart in the source and are kept apart here. Ends that are not written are not given here.

System: E. coli BW25113
Assay type: cell-based, Escherichia coli
Description: The following bacterial strains were used: Escherichia coli BW25113, E. coli BW25113ΔsbmA (JW0368‐1, KEIO collection21); Acinetobacter baumannii ATCC 19606, Klebsiella pneumoniae ATCC 700603, Pseudomonas aeruginosa ATCC 27853 and Staphylococcus aureus ATCC 25923. The pathogenic E. coli EURL‐VTEC A07, E. coli EURL‐VTEC C07, E. coli SSI‐NN14, E. coli EA22, E. coli SSI‐OO15 and E. coli C679‐12 strains were generously provided by the European Union Reference Laboratory for E. coli, Department of Food Safety, Nutrition and Veterinary Public Health, Istituto Superiore di Sanità, Rome, Italy. All the strains were grown overnight in Müller‐Hinton broth (MHB, Difco) at 37 °C, with shaking (140 rpm). The day after, the overnight bacterial cultures were diluted approx. 1 : 40 in fresh MHB and incubated at 37 °C with shaking (140 rpm) until an OD600nm of ≈0.3 was reached. E. coli BW25113ΔsbmA was grown in the presence of 50 μg mL^−1 kanamycin.
Peptides were diluted in 100 μL of MHB to the concentration of 128 μM, dispensed in the first wells of a 96‐wells microtiter plate (round‐bottom) and serially two‐fold diluted with MHB into successive wells in a final volume of 50 μl. Subsequently, 50 μL of a bacterial suspension (5×10^5 CFU mL^−1) were added to each well, halving the final concentration of bacteria and peptides. Bacteria were added to MHB only as bacterial growth‐control, whereas 100 μl of MHB were used to check the medium sterility. The plate was incubated overnight at 37 °C (≈18 hours) and sealed with parafilm to minimise evaporation. The MIC was calculated as the first clear well without bacterial growth. If barely detectable growth was present, the OD600nm of the plate was measured by a multiplate reader Tecan (software Sunrise). The MIC was then calculated as the well whose OD620 was≤1 % of that of the untreated growth control.

## AFRPPIRRPPIRPPFYPG-NH2 [R1A]
BW25113, 18 h
  MIC: 48 µM

## EFRPPIRRPPIRPPFYPG-NH2 [R1E]
BW25113, 18 h
  MIC: >64 µM

## FFRPPIRRPPIRPPFYPG-NH2 [R1F]
BW25113, 18 h
  MIC: 64 µM

## GFRPPIRRPPIRPPFYPG-NH2 [R1G]
BW25113, 18 h
  MIC: 32 µM

## PFRPPIRRPPIRPPFYPG-NH2 [R1P]
BW25113, 18 h
  MIC: 64 µM

## RARPPIRRPPIRPPFYPG-NH2 (C-terminus assumed) [F2A]
BW25113, 18 h
  MIC: 32 µM

## RERPPIRRPPIRPPFYPG-NH2 (C-terminus assumed) [F2E]
BW25113, 18 h
  MIC: >64 µM

## RFAPPIRRPPIRPPFYPG-NH2 [R3A]
BW25113, 18 h
  MIC: 64 µM

## RFEPPIRRPPIRPPFYPG-NH2 [R3E]
BW25113, 18 h
  MIC: >64 µM

## RFFPPIRRPPIRPPFYPG-NH2 [R3F]
BW25113, 18 h
  MIC: 64 µM

## RFGPPIRRPPIRPPFYPG-NH2 [R3G]
BW25113, 18 h
  MIC: 64 µM

## RFPPPIRRPPIRPPFYPG-NH2 [R3P]
BW25113, 18 h
  MIC: 64 µM

## RFRAPIRRPPIRPPFYPG-NH2 (C-terminus assumed) [P4A]
BW25113, 18 h
  MIC: 24 µM

## RFREPIRRPPIRPPFYPG-NH2 (C-terminus assumed) [P4E]
BW25113, 18 h
  MIC: 64 µM

## RFRFPIRRPPIRPPFYPG-NH2 (C-terminus assumed) [P4F]
BW25113, 18 h
  MIC: 8 µM

## RFRGPIRRPPIRPPFYPG-NH2 (C-terminus assumed) [P4G]
BW25113, 18 h
  MIC: 8 µM

## RFRPAIRRPPIRPPFYPG-NH2 (C-terminus assumed) [P5A]
BW25113, 18 h
  MIC: 64 µM

## RFRPEIRRPPIRPPFYPG-NH2 (C-terminus assumed) [P5E]
BW25113, 18 h
  MIC: >64 µM

## RFRPFIRRPPIRPPFYPG-NH2 (C-terminus assumed) [P5F]
BW25113, 18 h
  MIC: 32 µM

## RFRPGIRRPPIRPPFYPG-NH2 (C-terminus assumed) [P5G]
BW25113, 18 h
  MIC: >64 µM

## RFRPPARRPPIRPPFYPG-NH2 (C-terminus assumed) [I6A]
BW25113, 18 h
  MIC: 64 µM

## RFRPPERRPPIRPPFYPG-NH2 (C-terminus assumed) [I6E]
BW25113, 18 h
  MIC: >64 µM

## RFRPPFRRPPIRPPFYPG-NH2 (C-terminus assumed) [I6F]
BW25113, 18 h
  MIC: 16 µM

## RFRPPGRRPPIRPPFYPG-NH2 (C-terminus assumed) [I6G]
BW25113, 18 h
  MIC: >64 µM

## RFRPPIARPPIRPPFYPG-NH2 [R7A]
BW25113, 18 h
  MIC: >64 µM

## RFRPPIERPPIRPPFYPG-NH2 [R7E]
BW25113, 18 h
  MIC: >64 µM

## RFRPPIFRPPIRPPFYPG-NH2 [R7F]
BW25113, 18 h
  MIC: 32 µM

## RFRPPIGRPPIRPPFYPG-NH2 [R7G]
BW25113, 18 h
  MIC: >64 µM

## RFRPPIPRPPIRPPFYPG-NH2 [R7P]
BW25113, 18 h
  MIC: >64 µM

## RFRPPIRAPPIRPPFYPG-NH2 [R8A]
BW25113, 18 h
  MIC: >64 µM

## RFRPPIREPPIRPPFYPG-NH2 [R8E]
BW25113, 18 h
  MIC: >64 µM

## RFRPPIRFPPIRPPFYPG-NH2 [R8F]
BW25113, 18 h
  MIC: >64 µM

## RFRPPIRGPPIRPPFYPG-NH2 [R8G]
BW25113, 18 h
  MIC: >64 µM

## RFRPPIRPPPIRPPFYPG-NH2 [R8P]
BW25113, 18 h
  MIC: >64 µM

## RFRPPIRRAPIRPPFYPG-NH2 (C-terminus assumed) [P9A]
BW25113, 18 h
  MIC: >64 µM

## RFRPPIRREPIRPPFYPG-NH2 (C-terminus assumed) [P9E]
BW25113, 18 h
  MIC: >64 µM

## RFRPPIRRFPIRPPFYPG-NH2 (C-terminus assumed) [P9F]
BW25113, 18 h
  MIC: 16 µM

## RFRPPIRRGPIRPPFYPG-NH2 (C-terminus assumed) [P9G]
BW25113, 18 h
  MIC: >64 µM

## RFRPPIRRPAIRPPFYPG-NH2 (C-terminus assumed) [P10A]
BW25113, 18 h
  MIC: >64 µM

## RFRPPIRRPEIRPPFYPG-NH2 (C-terminus assumed) [P10E]
BW25113, 18 h
  MIC: >64 µM

## RFRPPIRRPFIRPPFYPG-NH2 [P10F]
BW25113, 18 h
  MIC: 64 µM

## RFRPPIRRPGIRPPFYPG-NH2 [P10G]
BW25113, 18 h
  MIC: >64 µM

## RFRPPIRRPPARPPFYPG-NH2 (C-terminus assumed) [I11A]
BW25113, 18 h
  MIC: >64 µM

## RFRPPIRRPPERPPFYPG-NH2 (C-terminus assumed) [I11E]
BW25113, 18 h
  MIC: >64 µM

## RFRPPIRRPPFRPPFYPG-NH2 (C-terminus assumed) [I11F]
BW25113, 18 h
  MIC: 32 µM

## RFRPPIRRPPGRPPFYPG-NH2 (C-terminus assumed) [I11G]
BW25113, 18 h
  MIC: >64 µM

## RFRPPIRRPPIAPPFYPG-NH2 [R12A]
BW25113, 18 h
  MIC: >64 µM

## RFRPPIRRPPIEPPFYPG-NH2 [R12E]
BW25113, 18 h
  MIC: >64 µM

## RFRPPIRRPPIFPPFYPG-NH2 [R12F]
BW25113, 18 h
  MIC: >64 µM

## RFRPPIRRPPIGPPFYPG-NH2 [R12G]
BW25113, 18 h
  MIC: >64 µM

## RFRPPIRRPPIPPPFYPG-NH2 [R12P]
BW25113, 18 h
  MIC: >64 µM

## RFRPPIRRPPIRAPFYPG-NH2 [P13A]
BW25113, 18 h
  MIC: >64 µM

## RFRPPIRRPPIREPFYPG-NH2 [P13E]
BW25113, 18 h
  MIC: >64 µM

## RFRPPIRRPPIRFPFYPG-NH2 [P13F]
BW25113, 18 h
  MIC: 32 µM

## RFRPPIRRPPIRGPFYPG-NH2 [P13G]
BW25113, 18 h
  MIC: >64 µM

## RFRPPIRRPPIRPAFYPG-NH2 [P14A]
BW25113, 18 h
  MIC: >64 µM

## RFRPPIRRPPIRPEFYPG-NH2 [P14E]
BW25113, 18 h
  MIC: >64 µM

## RFRPPIRRPPIRPFFYPG-NH2 [P14F]
BW25113, 18 h
  MIC: 32 µM

## RFRPPIRRPPIRPGFYPG-NH2 [P14G]
BW25113, 18 h
  MIC: >64 µM

## RFRPPIRRPPIRPPAYPG-NH2 (C-terminus assumed) [F15A]
BW25113, 18 h
  MIC: 64 µM

## RFRPPIRRPPIRPPEYPG-NH2 (C-terminus assumed) [F15E]
BW25113, 18 h
  MIC: >64 µM

## RFRPPIRRPPIRPPFAPG-NH2 [Y16A]
BW25113, 18 h
  MIC: 64 µM

## RFRPPIRRPPIRPPFEPG-NH2 [Y16E]
BW25113, 18 h
  MIC: >64 µM

## RFRPPIRRPPIRPPFFPG-NH2 [Y16F]
BW25113, 18 h
  MIC: 16 µM

## RFRPPIRRPPIRPPFGPG-NH2 [Y16G]
BW25113, 18 h
  MIC: >64 µM

## RFRPPIRRPPIRPPFPPG-NH2 [Y16P]
BW25113, 18 h
  MIC: 64 µM

## RFRPPIRRPPIRPPFRPG-NH2 [Y16R]
BW25113, 18 h
  MIC: 16 µM

## RFRPPIRRPPIRPPFSPG-NH2 [Y16S]
BW25113, 18 h
  MIC: >64 µM

## RFRPPIRRPPIRPPFYAG-NH2 [P17A]
BW25113, 18 h
  MIC: 16 µM

## RFRPPIRRPPIRPPFYEG-NH2 [P17E]
BW25113, 18 h
  MIC: >64 µM

## RFRPPIRRPPIRPPFYFG-NH2 [P17F]
BW25113, 18 h
  MIC: 16 µM

## RFRPPIRRPPIRPPFYGG-NH2 [P17G]
BW25113, 18 h
  MIC: 16 µM

## RFRPPIRRPPIRPPFYPG-NH2 [wt (SPOT form), reference compound]
BW25113, 18 h
  MIC: 32 µM
single-substitution library by SPOT‐synthesis (unpurified), MHB, ≈18 hours, 37 °C, median of n≥3
  MIC: 16 µM

## RFRPPIRRPPIRPPFYRG-NH2 [258 (SPOT form)]
BW25113, 18 h
  MIC: 8 µM

## RFRPPIRRPPIRPPFYSG-NH2 [P17S]
BW25113, 18 h
  MIC: 16 µM

## RFRPPIRRPPIRPPGYPG-NH2 (C-terminus assumed) [F15G]
BW25113, 18 h
  MIC: 32 µM

## RFRPPIRRPPIRPPPYPG-NH2 (C-terminus assumed) [F15P]
BW25113, 18 h
  MIC: >64 µM

## RFRPPIRRPPIRPPRYPG-NH2 (C-terminus assumed) [F15R]
BW25113, 18 h
  MIC: 32 µM

## RFRPPIRRPPIRPPSYPG-NH2 (C-terminus assumed) [F15S]
BW25113, 18 h
  MIC: 64 µM

## RFRPPIRRPPIRPRFYPG-NH2 [P14R]
BW25113, 18 h
  MIC: 32 µM

## RFRPPIRRPPIRPSFYPG-NH2 [P14S]
BW25113, 18 h
  MIC: 64 µM

## RFRPPIRRPPIRPWFYPG-NH2 [P14W]
BW25113, 18 h
  MIC: 16 µM

## RFRPPIRRPPIRRPFYPG-NH2 [P13R]
BW25113, 18 h
  MIC: 64 µM

## RFRPPIRRPPIRSPFYPG-NH2 [P13S]
BW25113, 18 h
  MIC: 64 µM

## RFRPPIRRPPIRWPFYPG-NH2 [P13W]
BW25113, 18 h
  MIC: 16 µM

## RFRPPIRRPPISPPFYPG-NH2 [R12S]
BW25113, 18 h
  MIC: >64 µM

## RFRPPIRRPPIWPPFYPG-NH2 [R12W]
BW25113, 18 h
  MIC: >64 µM

## RFRPPIRRPPPRPPFYPG-NH2 (C-terminus assumed) [I11P]
BW25113, 18 h
  MIC: >64 µM

## RFRPPIRRPPRRPPFYPG-NH2 (C-terminus assumed) [I11R]
BW25113, 18 h
  MIC: >64 µM

## RFRPPIRRPPSRPPFYPG-NH2 (C-terminus assumed) [I11S]
BW25113, 18 h
  MIC: >64 µM
